Experimental data taken from patent publication US7138361B2, “Herbicidal heterocycles” (E. I. du Pont de Nemours and Company, priority 2000, dated 2006).

Key:
Test in all cases: Test C preemergence
Assay type in all cases: in vivo
Sunflower [1] = conditions: scale 0 to 100, 0 no effect, 100 complete control
Sunflower [2] = system: Sunflower
Excerpt: (§1) Seeds of plant species selected from bermudagrass (Cynodon dactylon), Surinam grass (Brachiaria decumbens), cocklebur (Xanthium strumarium), corn (Zea mays), crabgrass (Digitaria sanguinalis), woolly cupgrass (Eriochloa villosa), giant foxtail (Setaria faberii), goosegrass (Eleusine indica), johnsongrass (Sorghum halepense), kochia (Kochia scoparia), lambsquarters (Chenopodium album), morningglory (Ipomoea hederacea), yellow nutsedge (Cyperus esculentus), pigweed (Amaranthus retroflexus), common ragweed (Ambrosia elatior), soybean (Glycine max) and velvetleaf (Abutilon theophrasti) were planted and treated preemergence with test chemicals formulated in a non-phytotoxic solvent mixture which included a surfactant.
(§2) At the same time, plants selected from these crop and weed species and also winter barley (Hordeum vulgare), blackgrass (Alopecurus myosuroides), canary grass (Phalaris minor), chickweed (Stellaria media), downy brome (Bromus tectorum), green foxtail (Setaria viridis), Italian ryegrass (Lolium multiflorum), wheat (Triticum aestivum), wild oat (Avena fatua) and windgrass (Apera spica-venti) were treated with postemergence applications of some of the test chemicals formulated in the same manner. Plants ranged in height from 2 to 18 cm (1- to 4-leaf stage) for postemergence treatments. Plant species in the flooded paddy test consisted of rice (Oryza saliva), smallflower flatsedge (Cyperus difformis), duck salad (Heteranthera limosa) and barnyardgrass (Echinochloa crus-galli) grown to the 2-leaf stage for testing. Treated plants and controls were maintained in a greenhouse for 12 to 14 days, after which time all species were compared to controls and visually evaluated. Plant response ratings, summarized in Table C, are based on a scale of 0 to 100 where 0 is no effect and 100 is complete control. A dash (-) response means no test result.

[3] = system: bermudagrass (Cynodon dactylon); conditions: for Plant response rating (0 to 100 where 0 is no effect and 100 is complete control), Bermudagrass: Rate 250 g/ha, visual evaluation after 12 to 14 days
Excerpt: as §1, §2

[4] = system: velvetleaf (Abutilon theophrasti)
Excerpt: as §1, §2

[5] = system: johnsongrass (Sorghum halepense); conditions: for Plant response rating (0 to 100), Johnsongrass: Rate 250 g/ha, visual evaluation after 12 to 14 days
Excerpt: as §1, §2

[6] = system: crabgrass (Digitaria sanguinalis); conditions: for Plant response rating (0 to 100), Crabgrass: Rate 250 g/ha, visual evaluation after 12 to 14 days
Excerpt: as §1, §2

[7] = system: yellow nutsedge (Cyperus esculentus)
Excerpt: as §1, §2

[8] = system: cocklebur (Xanthium strumarium); conditions: for Plant response rating (0 to 100), Cocklebur: Rate 250 g/ha, visual evaluation after 12 to 14 days
Excerpt: as §1, §2

[9] = system: pigweed (Amaranthus retroflexus)
Excerpt: as §1, §2

[10] = system: goosegrass (Eleusine indica); conditions: for Plant response rating (0 to 100), Goosegrass: Rate 250 g/ha, visual evaluation after 12 to 14 days
Excerpt: as §1, §2

corn (Zea mays) = conditions: for Plant response rating (0 to 100), Corn: Rate 250 g/ha, visual evaluation after 12 to 14 days
Excerpt: as §1, §2

[11] = system: woolly cupgrass (Eriochloa villosa); conditions: for Plant response rating (0 to 100), Cupgrass, Woolly: Rate 250 g/ha, visual evaluation after 12 to 14 days
Excerpt: as §1, §2

[12] = system: common ragweed (Ambrosia elatior)
Excerpt: as §1, §2

Nightshade = system: Nightshade
Excerpt: as §1, §2

[13] = system: Surinam grass (Brachiaria decumbens); conditions: for Plant response rating (0 to 100), Surinam grass: Rate 250 g/ha, visual evaluation after 12 to 14 days
Excerpt: as §1, §2

soybean (Glycine max) = system: soybean (Glycine max)
Excerpt: as §1, §2

[14] = system: lambsquarters (Chenopodium album)
Excerpt: as §1, §2

[15] = system: giant foxtail (Setaria faberii); conditions: for Plant response rating (0 to 100), Foxtail, Giant: Rate 250 g/ha, visual evaluation after 12 to 14 days
Excerpt: as §1, §2

[16] = system: morningglory (Ipomoea hederacea)
Excerpt: as §1, §2

kochia (Kochia scoparia) = system: kochia (Kochia scoparia)
Excerpt: as §1, §2

[17] = Rate 62 g/ha, scale 0 to 100, 0 no effect, 100 complete control
[18] = Preemergence, Rate 500 g/ha, scale 0 to 100
[19] = preemergence, Rate 125 g/ha, scale 0 to 100, 0 no effect, 100 complete control
[20] = preemergence, Rate 250 g/ha, visual evaluation after 12 to 14 days
[21] = Rate 62 g/ha; scale 0 to 100, 0 no effect, 100 complete control
[22] = Rate 125 g/ha, scale 0 to 100, 0 no effect, 100 complete control
[23] = preemergence, Rate 31 g/ha, scale 0 to 100
[24] = preemergence, Rate 250 g/ha, scale 0 to 100, 0 no effect, 100 complete control

Compound: CC(C)(C)c1ccn(C2SCN(c3cccc(OC(F)(F)F)c3)C2=O)n1 (centres unmarked) [Compound 30]
- Plant response rating, Sunflower (Sunflower [1]; Rate 125 g/ha): 80
- Plant response rating, Sunflower (Sunflower [2]; [17]): 0
- Plant response rating, Sunflower (Sunflower [2]; Rate 500 g/ha, scale 0 to 100): 100
- Plant response rating, Bermudagrass [3, 18]: 100
- Plant response rating, Bermudagrass [3, 17]: 100
- Plant response rating (0 to 100 where 0 is no effect and 100 is complete control), Bermudagrass ([3]; preemergence): 100
- Plant response rating, Bermudagrass [3, 19]: 100
- Plant response rating, Velvetleaf [4, 18]: 30
- Plant response rating, Velvetleaf [4, 17]: 0
- Plant response rating (0 to 100), Velvetleaf [4, 20]: 0
- Plant response rating, Velvetleaf [4, 19]: 0
- Plant response rating, Johnsongrass [5, 18]: 100
- Plant response rating, Johnsongrass [5, 17]: 30
- Plant response rating (0 to 100), Johnsongrass ([5]; preemergence): 90
- Plant response rating, Johnsongrass [5, 19]: 40
- Plant response rating, Crabgrass [6, 18]: 100
- Plant response rating, Crabgrass [6, 17]: 100
- Plant response rating (0 to 100), Crabgrass ([6]; preemergence): 100
- Plant response rating, Crabgrass [6, 19]: 100
- Plant response rating, Nutsedge [7, 18]: 40
- Plant response rating, Nutsedge [7, 17]: 20
- Plant response rating (0 to 100), Nutsedge [7, 20]: 40
- Plant response rating, Cocklebur [8, 18]: 80
- Plant response rating, Cocklebur [8, 17]: 0
- Plant response rating (0 to 100), Cocklebur ([8]; preemergence): 0
- Plant response rating, Cocklebur [8, 19]: 0
- Plant response rating, Pigweed [9, 18]: 100
- Plant response rating, Pigweed [9, 17]: 90
- Plant response rating (0 to 100), Pigweed [9, 20]: 90
- Plant response rating, Pigweed [9, 19]: 50
- Plant response rating, Goosegrass [10, 18]: 100
- Plant response rating, Goosegrass [10, 17]: 100
- Plant response rating (0 to 100), Goosegrass ([10]; preemergence): 100
- Plant response rating, Goosegrass [10, 19]: 100
- Plant response rating, Corn (corn (Zea mays); [18]): 50
- Plant response rating, Corn (corn (Zea mays); [17]): 30
- Plant response rating (0 to 100), Corn (corn (Zea mays); preemergence): 50
- Plant response rating, Corn (corn (Zea mays); [19]): 40
- Plant response rating, Cupgrass, Woolly [11, 18]: 100
- Plant response rating, Cupgrass, Woolly [11, 17]: 70
- Plant response rating (0 to 100), Cupgrass, Woolly ([11]; preemergence): 90
- Plant response rating, Cupgrass, Woolly [11, 19]: 70
- Plant response rating, Ragweed, Common [12, 18]: 100
- Plant response rating, Ragweed, Common [12, 17]: 0
- Plant response rating (0 to 100), Ragweed, Common [12, 20]: 90
- Plant response rating, Ragweed, Common [12, 19]: 90
- Plant response rating, Nightshade (Nightshade; [21]): 80
- Plant response rating, Nightshade (Nightshade; [22]): 90
- Plant response rating, Nightshade (Nightshade; Rate 500 g/ha, scale 0 to 100): 100
- Plant response rating, Surinam grass [13, 18]: 60
- Plant response rating, Surinam grass [13, 17]: 20
- Plant response rating (0 to 100), Surinam grass ([13]; preemergence): 40
- Plant response rating, Surinam grass [13, 19]: 40
- Plant response rating, Soybean (soybean (Glycine max); [18]): 70
- Plant response rating, Soybean (soybean (Glycine max); [17]): 30
- Plant response rating (0 to 100), Soybean (soybean (Glycine max); [20]): 70
- Plant response rating, Soybean (soybean (Glycine max); [19]): 70
- Plant response rating, Lambsquarters [14, 18]: 100
- Plant response rating, Lambsquarters [14, 17]: 100
- Plant response rating (0 to 100), Lambsquarters [14, 20]: 100
- Plant response rating, Lambsquarters [14, 19]: 100
- Plant response rating, Foxtail, Giant [15, 18]: 100
- Plant response rating, Foxtail, Giant [15, 17]: 80
- Plant response rating (0 to 100), Foxtail, Giant ([15]; preemergence): 90
- Plant response rating, Foxtail, Giant [15, 19]: 60
- Plant response rating, Morningglory [16, 18]: 80
- Plant response rating, Morningglory [16, 17]: 30
- Plant response rating (0 to 100), Morningglory [16, 20]: 80
- Plant response rating, Morningglory [16, 19]: 30

Compound: COC(=O)c1cccc(N2CCC(n3ccc(C(C)(C)C)n3)C2=O)c1 (centres unmarked) [Compound 73]
- Plant response rating, Sunflower (Sunflower [1]; Rate 250 g/ha): 70
- Plant response rating, Sunflower (Sunflower [2]; [22]): 50
- Plant response rating, Bermudagrass [3, 17]: 70
- Plant response rating, Bermudagrass [3, 22]: 100
- Plant response rating, Bermudagrass [3, 23]: 60
- Plant response rating (0 to 100 where 0 is no effect and 100 is complete control), Bermudagrass ([3]; preemergence): 100
- Plant response rating, Velvetleaf [4, 22]: 50
- Plant response rating, Velvetleaf [4, 23]: 20
- Plant response rating, Velvetleaf [4, 24]: 60
- Plant response rating, Johnsongrass [5, 17]: 20
- Plant response rating, Johnsongrass [5, 22]: 30
- Plant response rating, Johnsongrass [5, 23]: 0
- Plant response rating (0 to 100), Johnsongrass ([5]; preemergence): 50
- Plant response rating, Crabgrass [6, 17]: 90
- Plant response rating, Crabgrass [6, 22]: 100
- Plant response rating, Crabgrass [6, 23]: 90
- Plant response rating (0 to 100), Crabgrass ([6]; preemergence): 100
- Plant response rating, Nutsedge [7, 17]: 0
- Plant response rating, Nutsedge [7, 22]: 30
- Plant response rating, Nutsedge [7, 23]: 0
- Plant response rating, Nutsedge [7, 24]: 50
- Plant response rating, Cocklebur [8, 17]: 70
- Plant response rating, Cocklebur [8, 23]: 20
- Plant response rating (0 to 100), Cocklebur ([8]; preemergence): 80
- Plant response rating, Pigweed [9, 22]: 0
- Plant response rating, Pigweed [9, 23]: 0
- Plant response rating, Pigweed [9, 24]: 40
- Plant response rating, Goosegrass [10, 17]: 80
- Plant response rating, Goosegrass [10, 22]: 100
- Plant response rating, Goosegrass [10, 23]: 60
- Plant response rating (0 to 100), Goosegrass ([10]; preemergence): 100
- Plant response rating, Corn (corn (Zea mays); [17]): 0
- Plant response rating, Corn (corn (Zea mays); [22]): 0
- Plant response rating, Corn (corn (Zea mays); [23]): 0
- Plant response rating (0 to 100), Corn (corn (Zea mays); preemergence): 0
- Plant response rating, Cupgrass, Woolly [11, 17]: 60
- Plant response rating, Cupgrass, Woolly [11, 22]: 80
- Plant response rating, Cupgrass, Woolly [11, 23]: 20
- Plant response rating (0 to 100), Cupgrass, Woolly ([11]; preemergence): 100
- Plant response rating, Kochia (kochia (Kochia scoparia); [17]): 80
- Plant response rating, Kochia (kochia (Kochia scoparia); [22]): 100
- Plant response rating, Kochia (kochia (Kochia scoparia); [23]): 20
- Plant response rating (0 to 100), Kochia (kochia (Kochia scoparia); [20]): 100
- Plant response rating, Ragweed, Common [12, 22]: 80
- Plant response rating, Ragweed, Common [12, 23]: 30
- Plant response rating, Ragweed, Common [12, 24]: 100
- Plant response rating, Nightshade (Nightshade; Rate 31 g/ha, scale 0 to 100): 50
- Plant response rating, Nightshade (Nightshade; [21]): 60
- Plant response rating, Nightshade (Nightshade; Rate 125 g/ha; scale 0 to 100, 0 no effect, 100 complete control): 80
- Plant response rating, Nightshade (Nightshade; Rate 250 g/ha, scale 0 to 100, 0 no effect, 100 complete control): 100
- Plant response rating, Surinam grass [13, 17]: 50
- Plant response rating, Surinam grass [13, 22]: 70
- Plant response rating, Surinam grass [13, 23]: 20
- Plant response rating (0 to 100), Surinam grass ([13]; preemergence): 70
- Plant response rating, Soybean (soybean (Glycine max); [22]): 40
- Plant response rating, Soybean (soybean (Glycine max); [23]): 0
- Plant response rating, Soybean (soybean (Glycine max); [24]): 70
- Plant response rating, Foxtail, Giant [15, 17]: 80
- Plant response rating, Foxtail, Giant [15, 22]: 100
- Plant response rating, Foxtail, Giant [15, 23]: 20
- Plant response rating (0 to 100), Foxtail, Giant ([15]; preemergence): 100
- Plant response rating, Morningglory [16, 17]: 30
- Plant response rating, Morningglory [16, 22]: 30
- Plant response rating, Morningglory [16, 23]: 30
- Plant response rating, Morningglory [16, 24]: 100
